This is an account of results in patent US6995135B2, “Peptides and peptidomimetics having anti-proliferative activity and/or that augment nucleic acid damaging agents or treatments” (priority 2002, dated 2006).

pIC50: −log10 of the molar value. Read-outs that look alike come from different tables or passages of the source. Square brackets hold non-standard residues; d marks the D form. Peptide text beside a SMILES is read from it. dPhe(4-NO2) = N[C@H](Cc1ccc([N+](=O)[O-])cc1)C(=O)O; dPhe(F5) = N[C@H](Cc1c(F)c(F)c(F)c(F)c1F)C(=O)O; dBpa = N[C@H](Cc1ccc(C(=O)c2ccccc2)cc1)C(=O)O; dCha = N[C@H](CC1CCCCC1)C(=O)O

Data set [1] can be described thus: Maximal tolerated dose in mouse by single injection. Particulars: in vivo, observed for a week.
Data set [2] relates to Jurkat cells. Kind of data set: M phase checkpoint abrogation / non specific toxicity in colchicine treated Jurkat cells, flow cytometry. The data set is classed as cell-based. Particulars: with 5 μg/ml colchicine, 24 hours. The procedure:
Cell-cycle analysis The cell cycle status of the cells treated with bleomycin or adriamcin were analyzed by flow cytometry as described by Kawabe (1997) Nature 385:454–458. In brief, two million cells were re-suspended and incubated in 200 μul Krishan's solution (0.1% Sodium citrate, 50 μg/ml PI, 20 μg/ml RNase A and 0.5% NP-40) for 1 hr at 4° C. and analyzed by a flow cytometry, FACScan™ (Beckton Dickinson, Mountain View, Calif.) with the program CELLQuest™ (Beckton Dickinson).
Flow cytometry analysis of M phase checkpoint abrogation by the compounds was performed using human T cell leukemia Jurkat cell line treated with colchicine (5 μg/ml or 0.5 μg/ml) and various doses of peptide/peptidomimetics for 24 hr (FIG. 12). The DNA of the cells was stained and analyzed by flow cytometry as described above.
The “Appearance of side effect when used alone” indicates the peptide/peptidomimetic dose that produced Jurkat cell cycle disturbance, i.e., the appearance of significant amounts of SubG1 cells (dead cells) or cells in which the DNA content of each varies more than usual. […]
A comparison between G2 checkpoint abrogating activity and non specific toxicity (M checkpoint abrogation) by CB501 was performed. […] The DNA amount in each of the treated cells was analyzed by flow cytometry, as previously described.
(In general: In flow cytometry, cells or beads pass a laser one at a time.)

Data set [3] concerns Jurkat cells. The data set is described as follows: G2 checkpoint abrogation in bleomycin treated Jurkat cells, flow cytometry. Particulars: for G2 abrogating dose: Jurkat cells, with 40 μg/ml bleomycine, 24 hours, dose with detectable G2 checkpoint abrogation; for G2 checkpoint abrogating activity (in words): bleomycin (40 μg/ml) treated Jurkat cells, % G2/M cells. The data set is classed as cell-based, human.
Description: Flow cytometry analysis of G2 checkpoint abrogation was performed using human leukemia derived Jurkat cell line. In brief, cultured cells were treated with various doses of peptide/peptidomimetic and 40 μg/ml bleomycine for 24 hr. The DNA of the cells was stained with propidium iodide and analyzed by flow cytometry.
The “Appearance of side effect when used alone” indicates the peptide/peptidomimetic dose that produced Jurkat cell cycle disturbance, i.e., the appearance of significant amounts of SubG1 cells (dead cells) or cells in which the DNA content of each varies more than usual. […] The “G2 abrogating dose” indicates the peptide/peptidomimetic dose with 40 μg/ml bleomycine that produced detectable G2 checkpoint abrogation activity following treatment for 24 hours. The “Appearance of side effect when used with colchicine” indicates the peptide/peptidomimetic dose with 5 μg/ml colchicine that produced Jurkat cell cycle disturbance following treatment for 24 hours.

Data set [4] concerns the target T1, recombinant human full length Chk1 (Homo sapiens, UniProt O14757).
T1 construct: baculovirus derived recombinant human full length Chk1 with histidine tag; histidine tag; host or cells: baculovirus system (insect cells)
T1 sequence (O14757 1-476): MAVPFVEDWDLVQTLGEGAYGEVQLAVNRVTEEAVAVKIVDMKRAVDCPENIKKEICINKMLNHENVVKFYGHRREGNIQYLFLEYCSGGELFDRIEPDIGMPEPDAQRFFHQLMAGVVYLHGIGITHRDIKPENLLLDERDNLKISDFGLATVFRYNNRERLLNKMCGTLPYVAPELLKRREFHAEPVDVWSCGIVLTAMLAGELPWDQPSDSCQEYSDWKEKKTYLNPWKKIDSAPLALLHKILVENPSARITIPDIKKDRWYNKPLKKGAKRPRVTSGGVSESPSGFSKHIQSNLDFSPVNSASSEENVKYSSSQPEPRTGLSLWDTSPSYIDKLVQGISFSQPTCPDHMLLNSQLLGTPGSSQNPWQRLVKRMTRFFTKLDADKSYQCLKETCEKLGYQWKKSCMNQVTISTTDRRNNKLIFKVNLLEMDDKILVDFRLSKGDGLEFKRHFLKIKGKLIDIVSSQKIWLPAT
The data set is described as follows: In vitro kinase inhibition (CycLex), phosphorylation of serine 216 on GST-Cdc25C. The format is biochemical. The method, then:
(§1) In vitro kinase inhibition analysis was performed by CycLex, Co. Ltd., Nagano, Japan. Briefly, baculovirus derived recombinant human full length Chk1 with histidine tag or E. Coli derived recombinant human full length Chk2 fused with GST were used as kinases. E. Coli derived recombinant GST-Cdc25C (amino acis 167–267) was used as a substrate. Reaction conditions were 20 mM Hepes-KOH (pH7.5), 1 mM DTT, […] BSA, 10 mM MgCl2 and […] ATP at 30 degree for 60 min. The phosphorylation of serine 216 on GST-Cdc25C was detected by anti-Cdc25C-phosphorylated S216 antibody with enzyme linked immune assay.

Data set [5] concerns the target T2, recombinant human full length Chk2 (Homo sapiens, UniProt O96017).
T2 construct: E. Coli derived recombinant human full length Chk2 fused with GST; host or cells: E. coli
The description is as above. The format is biochemical. The procedure:
as §1

The nature of data set [6]: Human serum treatment analysis, residual G2 checkpoint abrogating activity. The format is in vitro ADME. Particulars: d-type amino acid peptides compared with l-type peptide such as CBP413. The method, then: Serum analysis was performed to determine the stability of peptides in mouse and human serum. Briefly, peptides (10 mM or 2.5 mM) were incubated with freshly prepared human serum at 37 degrees for 1 hr. CBP50 (10 mM) was incubated with freshly prepared mouse serum for 1 hr at 37 degree. Jurkat cells were treated with the serum with or without peptides and bleomycin (40 μg/ml) and incubated for 24 hr. The population of G2 phase cells was determined by flow cytometry as previously described. The residual G2 checkpoint abrogating activity of serum treated peptides were determined by comparing the % G2 cells of the treated serum and the standard curve produced with medium treated peptides, bleomycin and Jurkat cells (Table 5A).

T2 sequence (O96017 whole entry, the tested form may be a part): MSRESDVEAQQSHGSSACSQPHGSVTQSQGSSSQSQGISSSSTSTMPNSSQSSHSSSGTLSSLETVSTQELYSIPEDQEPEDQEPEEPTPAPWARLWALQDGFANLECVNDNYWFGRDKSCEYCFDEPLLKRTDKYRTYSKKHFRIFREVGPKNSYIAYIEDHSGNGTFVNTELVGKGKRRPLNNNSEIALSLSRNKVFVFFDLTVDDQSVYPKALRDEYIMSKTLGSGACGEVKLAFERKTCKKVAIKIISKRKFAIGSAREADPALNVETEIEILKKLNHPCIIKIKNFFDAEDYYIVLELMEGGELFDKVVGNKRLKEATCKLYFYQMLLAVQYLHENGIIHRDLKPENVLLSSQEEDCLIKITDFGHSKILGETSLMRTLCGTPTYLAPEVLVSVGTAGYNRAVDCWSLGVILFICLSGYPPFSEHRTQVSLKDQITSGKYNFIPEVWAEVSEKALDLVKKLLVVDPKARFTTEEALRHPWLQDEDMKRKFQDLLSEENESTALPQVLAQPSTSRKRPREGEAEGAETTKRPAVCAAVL

In general, MTD refers to the largest dose that counted as tolerated. With `N=C(N)NCCC[C@H](NC(=O)CNC(=O)[C@@H](N)Cc1ccc(O)cc1)C(=O)N[C@@H](CCCCN)C(=O)N[C@@H](CCCCN)C(=O)N[C@@H](CCCNC(=N)N)C(=O)N[C@@H](CCCNC(=N)N)C(=O)N[C@@H](CCC(N)=O)C(=O)N[C@@H](CCCNC(=N)N)C(=O)N[C@@H](CCCNC(=N)N)C(=O)N[C@@H](CCCNC(=N)N)C(=O)N[C@@H](CC1CCCCC1)C(=O)N[C@@H](Cc1c(F)c(F)c(F)c(F)c1F)C(=O)N[C@@H](CCCNC(=N)N)C(=O)N[C@@H](CO)C(=O)N1CCC[C@H]1C(=O)N[C@@H](CO)C(=O)N[C@@H](Cc1ccc(O)cc1)C(=O)N[C@@H](Cc1ccc(O)cc1)C(=O)O` [CBP413, (l-Tyr)(l-Gly)(l-Arg)(l-Lys)(l-Lys)(l-Arg)(l-Arg)(l-Gln)(l-Arg)(l-Arg)(l-Arg)(l-Cha)(l-Phe-2,3,4,5,6-F)(l-Arg)(l-Ser)(l-Pro)(l-Ser)(l-Tyr)(l-Tyr)], the MTD in data set [1] (ip, single intra-peritoneal injection, read-out: MTD (ip)) turned out to be 147 mg/kg; in data set [1] (single intravenous injection, read-out: MTD (iv)), 14 mg/kg.

As for `N=C(N)NCCC[C@H](NC(=O)CNC(=O)[C@@H](N)Cc1ccc(O)cc1)C(=O)N[C@@H](CCCCN)C(=O)N[C@@H](CCCCN)C(=O)N[C@@H](CCCNC(=N)N)C(=O)N[C@@H](CCCNC(=N)N)C(=O)N[C@@H](CCC(N)=O)C(=O)N[C@@H](CCCNC(=N)N)C(=O)N[C@@H](CCCNC(=N)N)C(=O)N[C@@H](CCCNC(=N)N)C(=O)N[C@@H](CC1CCCCC1)C(=O)N[C@@H](Cc1c(F)c(F)c(F)c(F)c1F)C(=O)N[C@@H](CCCNC(=N)N)C(=O)N[C@@H](CO)C(=O)N1CCC[C@H]1C(=O)N[C@@H](CO)C(=O)N[C@@H](Cc1ccc(O)cc1)C(=O)O` [CBP420, (l-Tyr)(l-Gly)(l-Arg)(l-Lys)(l-Lys)(l-Arg)(l-Arg)(l-Gln)(l-Arg)(l-Arg)(l-Arg)(l-Cha)(l-Phe-2,3,4,5,6-F)(l-Arg)(l-Ser)(l-Pro)(l-Ser)(l-Tyr)], in data set [2], the “Appearance of side effect when used with Colchicine” value is given as “≧50 μM”.

As for `N=C(N)NCCC[C@@H](NC(=O)[C@@H](CCCCN)NC(=O)[C@@H](CCCCN)NC(=O)[C@@H](CCCNC(=N)N)NC(=O)[C@@H](CCCNC(=N)N)NC(=O)[C@@H](CCC(N)=O)NC(=O)[C@@H](CCCNC(=N)N)NC(=O)[C@@H](CCCNC(=N)N)NC(=O)[C@@H](CCCNC(=N)N)NC(=O)[C@@H](CC1CCCCC1)NC(=O)[C@@H](Cc1c(F)c(F)c(F)c(F)c1F)NC(=O)[C@@H](CCCNC(=N)N)NC(=O)[C@@H](CO)NC(=O)CNC(=O)[C@@H](CO)NC(=O)[C@@H](Cc1ccc(O)cc1)NC(=O)[C@H](N)Cc1ccc(O)cc1)C(=O)NCC(=O)N[C@H](Cc1ccc(O)cc1)C(=O)O` [CBP450, (d-Tyr)(d-Tyr)(d-Ser)(l-Gly)(d-Ser)(d-Arg)(d-Phe-2,3,4,5,6-F)(d-Cha)(d-Arg)(d-Arg)(d-Arg)(d-Gln)(d-Arg)(d-Arg)(d-Lys)(d-Lys)(d-Arg)(l-Gly)(d-Tyr)] (H-[dY][dY][dS]G[dS][dR][dPhe(F5)][dCha][dR][dR][dR][dQ][dR][dR][dK][dK][dR]G[dY]-OH; N-terminus and C-terminus assumed), the G2 abrogating dose entry in data set [3] is given as “≧0.78 μM”.

In the case of `N=C(N)NCCC[C@@H](NC(=O)[C@@H](CCCNC(=N)N)NC(=O)[C@@H](CCC(N)=O)NC(=O)[C@@H](CCCNC(=N)N)NC(=O)[C@@H](CCCNC(=N)N)NC(=O)[C@@H](CCCNC(=N)N)NC(=O)[C@@H](CC1CCCCC1)NC(=O)[C@@H](Cc1c(F)c(F)c(F)c(F)c1F)NC(=O)[C@@H](CO)NC(=O)[C@@H](Cc1c[nH]c2ccccc12)NC(=O)[C@@H](CO)NC(=O)[C@@H](Cc1ccc(C(=O)c2ccccc2)cc1)NC(=O)[C@H](N)Cc1ccc(O)cc1)C(=O)O` [CBP500, (d-Tyr)(d-Bpa)(d-Ser)(d-Trp)(d-Ser)(d-Phe-2,3,4,5,6-F)(d-Cha)(d-Arg)(d-Arg)(d-Arg)(d-Gln)(d-Arg)(d-Arg)] (H-[dY][dBpa][dS][dW][dS][dPhe(F5)][dCha][dR][dR][dR][dQ][dR][dR]-OH; N-terminus and C-terminus assumed), the G2 abrogating dose entry in data set [3] is on record as “≧0.39 μM”.

For orientation: pIC50 means the negative decadic logarithm of the IC50, by convention in mol/L. Take `N=C(N)NCCC[C@@H](NC(=O)[C@@H](CCCNC(=N)N)NC(=O)[C@@H](CCC(N)=O)NC(=O)[C@@H](CCCNC(=N)N)NC(=O)[C@@H](CCCNC(=N)N)NC(=O)[C@@H](CCCNC(=N)N)NC(=O)[C@@H](CC1CCCCC1)NC(=O)[C@@H](Cc1c(F)c(F)c(F)c(F)c1F)NC(=O)[C@@H](CC(=O)O)NC(=O)[C@@H](CO)NC(=O)[C@@H](Cc1c[nH]c2ccccc12)NC(=O)[C@@H](CO)NC(=O)[C@H](N)Cc1ccc(C(=O)c2ccccc2)cc1)C(=O)O` [CBP506, (d-Bpa)(d-Ser)(d-Trp)(d-Ser)(d-Asp)(d-Phe-2,3,4,5,6-F)(d-Cha)(d-Arg)(d-Arg)(d-Arg)(d-Gln)(d-Arg)(d-Arg)] (H-[dBpa][dS][dW][dS][dD][dPhe(F5)][dCha][dR][dR][dR][dQ][dR][dR]-OH; N-terminus and C-terminus assumed): the pIC50 in data set [4] was 4.42; in data set [5] it was 4.17.

`N=C(N)NCCC[C@@H](NC(=O)[C@@H](CCCNC(=N)N)NC(=O)[C@@H](CCC(N)=O)NC(=O)[C@@H](CCCNC(=N)N)NC(=O)[C@@H](CCCNC(=N)N)NC(=O)[C@@H](CCCNC(=N)N)NC(=O)[C@@H](CC1CCCCC1)NC(=O)[C@@H](Cc1ccc([N+](=O)[O-])cc1)NC(=O)[C@@H](CO)NC(=O)[C@@H](Cc1c[nH]c2ccccc12)NC(=O)[C@@H](CO)NC(=O)[C@H](N)Cc1ccc(C(=O)c2ccccc2)cc1)C(=O)O` [CBP603, (d-Bpa)(d-Ser)(d-Trp)(d-Ser)(d-Phe4No2)(d-Cha)(d-Arg)(d-Arg)(d-Arg)(d-Gln)(d-Arg)(d-Arg)] (H-[dBpa][dS][dW][dS][dPhe(4-NO2)][dCha][dR][dR][dR][dQ][dR][dR]-OH; N-terminus and C-terminus assumed): the “Stability in serum (in words)” value in data set [6] was “more stable in serum”.

Take “(d-Arg)(d-Arg)(d-Arg)(d-Arg)(d-Bpa)(d-Arg)(d-Trp)(d-Arg)(d-Phe-2,3,4,5,6-F)(d-Cha) [CBP702]”: in data set [3], the “G2 checkpoint abrogating activity (in words)” value is reported as “retain G2 checkpoint abrogating activity comparable to other peptides having significant G2 checkpoint abrogating activity”.

Take “(d-Arg)(d-Arg)(d-Arg)(d-Bpa)(d-Arg)(d-Arg)(d-Arg)(d-Phe-2,3,4,5,6-F)(d-Cha) [CBP703]”: the “G2 checkpoint abrogating activity (in words)” value in data set [3] is “retain G2 checkpoint abrogating activity comparable to other peptides having significant G2 checkpoint abrogating activity”.

Take “(d-Arg)(d-Arg)(d-Arg)(d-Bpa)(d-Arg)(d-Trp)(d-Arg)(d-Phe-2,3,4,5,6-F)(d-Cha) [CBP701]”: the “G2 checkpoint abrogating activity (in words)” value in data set [3] is given as “retain G2 checkpoint abrogating activity comparable to other peptides having significant G2 checkpoint abrogating activity”.

In the case of “(d-Arg)(d-Arg)(d-Bpa)(d-Arg)(d-Arg)(d-Arg)(d-Phe-2,3,4,5,6-F)(d-Cha) [CBP700]”, in data set [3], the “G2 checkpoint abrogating activity (in words)” value is “retain G2 checkpoint abrogating activity comparable to other peptides having significant G2 checkpoint abrogating activity”.
